Experimental data reported in patent US20100041756A1, “METHOD OF MODULATING B CELL FUNCTIONING” (priority 2004, published 2010).
“And” between values parts separate entries of the source, which are not always exact repeats. Equal entries are not always repeated. Where two headings read alike, the source gives them in different places.

Key:
[1] = tested on: anti-type II collagen IgG1; test: Inhibition of anti-type II collagen antibody production in vivo (Example 5); set-up: species or system mouse
Protocol: Female DBA/1 mice (10 weeks of age) were immunised intraperitoneally on day 1 with 100 μg bovine type II collagen, dissolved in 0.05M Tris/0.2M NaCl, pH 7.4). Tranilast was dissolved in 1% sodium bicarbonate (10 mg/ml) by heating for 1 h at 70° C. Upon cooling, an emulsion was formed. Tranilast was administered intraperitoneally for three weeks (starting on day 1) at a dose of 400 mg/kg, every 2-3 days. Controls received vehicle alone. There were six mice per group.
On day 28 mice were bled and serum levels of anti-type II collagen IgG1 and IgG2a were measured by ELISA, as follows:
1. Polystyrene microtitre plates (Immulon 2, Dynatech Laboratories) were coated with DEAE-purified bovine type II collagen, dissolved in 0.2M NaCl/0.05M Tris, pH 7.4 (5 μg/ml), overnight at 4° C. 2. The plates were washed in phosphate-buffered saline (PBS), then blocked with BSA in PBS (2% w/v) for 1 h at room temperature. 3. After washing in PBS, containing Tween 20 (0.05% v/v), the sera were serially diluted in PBS/Tween, added to the plates and incubated for 2 h at room temperature. 4. After washing in PBS/Tween, bound IgG was detected by incubating goat anti-mouse IgG1 or anti-mouse IgG2a-HRP conjugate ( 1/1000) for 2 h at room temperature. 5. Develop colour reaction using TMB substrate. Stop reaction with 4.5NH2SO4 6. The plates were read at 450 nm on a microtitre plate reader.

[2] = tested on: B cells activated with LPS, anti-CD40 or anti-IgM antibody; test: B cell proliferation, 3[H]thymidine incorporation (Example 3); format: cell-based, mouse; conditions: for anti-IgM induced proliferation: 12.5-100 μg/ml; for inhibition at 100 µg/mL: Mus musculus, B-cell, 100 μg/ml
Protocol: FIG. 4 is a graphical representation depicting that B cell proliferation induced by LPS and anti-CD40 is inhibited by Tranilast. B-cells were activated in vitro with LPS or anti-CD40 antibody and 6.25-100 μg/ml tranilast. Proliferation was assessed using ^3[H]thymidine incorporation. LPS and anti-CD40 induced a 92- and 258-fold increase in thymidine incorporation respectively.
FIG. 5 is a graphical representation depicting that B cell proliferation induced by LPS and anti-CD40 and anti-IgM is inhibited by tranilast. B-cells were activated in vitro with LPS or anti-CD40 antibody or anti-IgM antibody, and 12.5-100 μg/ml tranilast. Proliferation was assessed using ^3[H]thymidine incorporation. LPS, anti-CD40 and anti-IgM induced 91- and 81- and 60-fold increases in thymidine incorporation respectively.
B cells were prepared from mouse spleen using rat anti-mouse IgM microbeads and the MACS system.
3 spleens were removed from male DBA/1 mice aged 8-12 weeks. A single cell suspension was prepared by cell-sieve.
Cells were cultured at 1×10^6 cells/ml in 200 μl complete RPMI with glutamine (10% FCS, 1% Pen/Strep, 50 μM 2-Mercaptoethanol, 1 mM Na-Pyruvate) in a 96-well plate for 48 h in the presence of LPS (20 μg/ml), azide-free anti-CD40 monoclonal antibody (10 μg/ml), or azide free F(ab′)2 fragment of anti-IgM monoclonal antibody (20 μg/ml) and 100-6.25 μg/ml tranilast, or vehicle (DMSO).
1 μCi ^3[H]thymidine was added to each well and incubated overnight. Cells were harvested onto a pre-wet filter mat using a Skaton cell harvester. The filter mat was dried in a microwave for 2 minutes at 750 W. The dry filter mat was sealed in a bag using a plate sealer, and the corner cut. 10 ml scintillation fluid was placed in the bag, and spread evenly over the filter mat. The bag was re-sealed and read in a Wallac 1205 plate reader.

[3] = tested on: anti-type II collagen IgG1 and IgG2a; test: Serum anti-collagen antibody levels in mice with established CIA (ELISA); format: in vivo, mouse; conditions: 10 days treatment
Protocol: ELISA plates (Nunc, Uxbridge, UK) were coated with 2 μg/ml of bovine CII dissolved overnight in Tris Buffer (0.05 M Tris, containing 0.2 M NaCl, pH 7.4) blocked with 2% bovine serum albumin (BSA) and then incubated with serial dilutions of test sera. A reference sample was included on each plate. Bound total IgG, IgG1 or IgG2a was detected by incubation with HRP-conjugated sheep anti-mouse IgG, IgG1 or IgG2a, followed by TMB substrate. Optical density was measured at 450 nm.

[4] = tested on: B cells stimulated with anti-CD40; test: Purified B cell proliferation, anti-CD40, 3H-thymidine incorporation (Example 4); format: cell-based, mouse
Protocol: FIG. 10 is a graphical representation depicting that 3,4-DAA and 3-HAA inhibit B and T cell proliferation in vitro. Purified B and T cells were stimulated for 72 h with anti-CD40 (a), or anti-CD3/anti-CD28 (b) respectively, in the presence of varying doses of 3,4-DAA, or 3-HAA.
A single cell suspension was prepared from spleen by mincing through a cell strainer, and erythrocytes were lysed using an ammonium chloride solution (Sigma, St Louis, Mo., USA). B cells were positively enriched by using anti-IgM MACS microbeads, and T cells were positively enriched using anti-CD4 MACS microbeads and the MACS system, according to the manufacturer's guidelines (Miltenyi Biotec, Bergisch Gladbach, Germany). Purity was assessed by flow cytometric analysis (B cell>90% CD19+, T cell>90% CD4+). Cells were cultured at 5×10^5 cells/ml in 200 μl complete RPMI, as above, in a flat bottom 96-well plate and cultured for 72 h. B cells were stimulated with anti-CD40 monoclonal antibody (10 μg/ml; BD), and T cells were stimulated with 5 μg/ml plate-bound anti-CD3 (BD), 5 μg/ml soluble anti-CD28 (BD). Tranilast, 3-HAA, or vehicle (DMSO) were incubated at concentrations stated with the cultures. 48 hours after stimulation, 100 μl culture medium was collected, and cells were pulsed with 1 μCi ^3H thymidine per well for 18 h. Cells were then harvested and plates assessed for incorporation. Each assay was performed on a minimum of 3 occasions. Data shown is of one representative experiment, and is expressed as mean+/−SD of triplicate in culture. IFN-γ, IL-10 and IL-5 levels was assessed in the culture medium by ELISA, as above.

[5] = individual mice, day 28, 400 mg/kg i.p. every 2-3 days for three weeks

COc1ccc(/C=C/C(=O)Nc2ccccc2C(=O)O)cc1OC [Tranilast, 2-[[3-(3,4-dimethoxyphenyl)-1-oxo-2-propenyl]amino]benzoic acid]
Levels of anti-type II collagen IgG1 ([1]; group comparison, P=0.03, Mann Whitney test): significantly higher in the control group versus the Tranilast treated group
OD450 (dilution 1/100), anti-type II collagen IgG1 [1, 5]: 0.07 and 0.06 (2×) and 0.31 and 0.08 (2×)
Titre (reciprocal), anti-type II collagen IgG1 [1, 5]: <50 (4×) and <1/50 and 150
B cell proliferation induced by LPS or anti-CD40 ([2]; 37.5 μg/ml, FIG. 5): significantly inhibited
B cell proliferation induced by LPS or anti-CD40 ([2]; 100 μg/ml and 50 μg/ml, FIG. 4): significantly inhibited
anti-IgM induced proliferation ([2]; FIG. 5): effective at all doses assessed
anti-IgM induced proliferation ([2]; FIG. 5, listed as tranilast): all doses tested inhibited
inhibition at 100 µg/mL ([2]; FIG. 4, read-out: inhibition of B cell proliferation induced by LPS): 99%
inhibition at 100 µg/mL ([2]; FIG. 4, read-out: inhibition of B cell proliferation induced by anti-CD40): 97%
inhibition at 100 µg/mL ([2]; FIG. 5, read-out: maximum inhibition of B cell proliferation (LPS)): 96%
inhibition at 100 µg/mL ([2]; FIG. 5, read-out: maximum inhibition of B cell proliferation (anti-CD40)): 91%
inhibition at 100 µg/mL ([2]; FIG. 5, read-out: maximum inhibition of B cell proliferation (anti-IgM)): 98%
levels of anti-type II collagen IgG1 and IgG2a in sera [3]: no differences were observed
IC50 ([4]; Mus musculus, B-cell, anti-CD40, 72 h, 3H-thymidine (FIG. 10A), read-out: IC50 for inhibition of B cell proliferation): 73.1 µM
B cell proliferation ([4]; anti-CD40, varying doses (FIG. 10A)): dose-dependently inhibited
